How the values were obtained:
[1] = target: MCL-1/Bim interaction (recombinant human MCL-1 protein, residues 171-327; biotinylated human Bim peptide, residues 51-76) (Homo sapiens (Human), UniProt Q07820); assay: MCL-1/Bim Binding AlphaLISA Assay; settings: 0.0625 nM 6xHis-Mcl-1 (171-327), 0.0625 nM biotinylated-Bim peptide
How it was run: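 Compounds first sat 1 h with MCL-1 (171-327, 0.0625 nM), followed by 2 h with biotin-Bim 51-76 (0.0625 nM), then sequential 1 h anti-His acceptor and streptavidin donor bead steps; buffer Hepes pH 7.5 with NaCl, Brij 35, DTT, BSA. AlphaScreen signal converted to % inhibition using DMSO (negative) and protein/peptide-free (positive) controls.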

[2] = system: SKBR3 cells; assay: SKBR3 Cell Viability Assay (CellTiter Glo); type: cell-based; settings: Homo sapiens, SK-BR-3, 72 h, CellTiter Glo luminescence, read-out: MCL-1 CV SKBR3 EC50
How it was run: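 Viability read as CellTiter Glo luminescence after 72 h of compound exposure at 37° C./5% CO2, using 6,000 SKBR3 cells per well in McCoy 5A with 10% FBS. Percent inhibition scaled between DMSO wells and 10 μM puromycin wells.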

Chain of MCL-1/Bim interaction (recombinant human MCL-1 protein, residues 171-327; biotinylated human Bim peptide, residues 51-76) (Q07820 171-327): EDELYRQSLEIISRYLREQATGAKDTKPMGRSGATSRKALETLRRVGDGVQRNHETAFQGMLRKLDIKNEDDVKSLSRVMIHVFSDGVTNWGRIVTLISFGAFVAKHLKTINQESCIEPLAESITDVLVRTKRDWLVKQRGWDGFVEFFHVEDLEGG

| SMILES | IC50 [1] | EC50 [2] |
| --- | --- | --- |
| COc1cc(C(=O)N[S@@]2(=O)=NC(=O)c3ccc4c(c3)N(C[C@@H]3CC[C@H]3[C@@H](OC)/C=C/C[C@H](C)C2)C[C@@]2(CCCc3cc(Cl)ccc32)CO4)c(OC)nn1 [Example 278] | 0.089 nM | 80.5 nM |
| CO[C@H]1/C=C/C[C@H](C)C[S@@](=O)(NC(=O)N2CC(Oc3ccncc3)C2)=NC(=O)c2ccc3c(c2)N(C[C@@H]2CC[C@H]21)C[C@@]1(CCCc2cc(Cl)ccc21)CO3 [Example 275] | 0.053 nM | 90.4 nM |
| COc1nn(C)cc1C(=O)N[S@@]1(=O)=NC(=O)c2ccc3c(c2)N(C[C@@H]2CC[C@H]2[C@@H](OCCN2CCOCC2)/C=C/C[C@H](C)C1)C[C@@]1(CCCc2cc(Cl)ccc21)CO3 [Example 366] | 0.086 nM | 53.1 nM |
| COc1nn(C)cc1C(=O)N[S@@]1(=O)=NC(=O)c2ccc3c(c2)N(C[C@@H]2CC[C@H]2[C@@H](OC(=O)OC(C)C)/C=C/C[C@H](C)C1)C[C@@]1(CCCc2cc(Cl)ccc21)CO3 [Example 384] | 0.34 nM | 154 nM |
| CNCCO[C@H]1/C=C/[C@H](OC)[C@@H]2CC[C@H]2CN2C[C@@]3(CCCc4cc(Cl)ccc43)COc3ccc(cc32)C(=O)N=[S@](=O)(NC(=O)c2cn(C)nc2OC)C[C@H]1C [Example 386] | 0.048 nM | 83.8 nM |
| CO[C@H]1/C=C/C[C@H](C)C[S@@](=O)(NC(=O)C2CC(C)(O)C2)=NC(=O)c2ccc3c(c2)N(C[C@@H]2CC[C@H]21)C[C@@]1(CCCc2cc(Cl)ccc21)CO3 (some centres unmarked) [Example 140] | 0.043 nM | 38.6 nM |
| CO[C@H]1/C=C/C[C@H](C)C[S@@](=O)(NC(=O)N2CC(Oc3cccnc3)C2)=NC(=O)c2ccc3c(c2)N(C[C@@H]2CC[C@H]21)C[C@@]1(CCCc2cc(Cl)ccc21)CO3 [Example 352] | 0.046 nM | 54.4 nM |
| COC[C@H]1Cn2cc(C(=O)N[S@@]3(=O)=NC(=O)c4ccc5c(c4)N(C[C@@H]4CC[C@H]4[C@@H](O)/C=C/C[C@H](C)C3)C[C@@]3(CCCc4cc(Cl)ccc43)CO5)cc2CO1 [Example 325] | 0.1 nM | 50.3 nM |
| CO[C@H]1/C=C/C[C@H](C)C[S@@](=O)(NC(=O)c2cn(C)nc2C(F)F)=NC(=O)c2ccc3c(c2)N(C[C@@H]2CC[C@H]21)C[C@@]1(CCCc2cc(Cl)ccc21)CO3 [Example 448] | 0.117 nM | 251 nM |
| CO[C@H]1/C=C/C[C@H](C)C[S@@](=O)(NC(=O)[C@H]2CCc3cnn(C)c3C2)=NC(=O)c2ccc3c(c2)N(C[C@@H]2CC[C@H]21)C[C@@]1(CCCc2cc(Cl)ccc21)CO3 (single isomer, unassigned) [Example 141] | 0.086 nM | 65.3 nM |
| CO[C@H]1/C=C/CCC[S@@](=O)(NC(=O)CCc2ccon2)=NC(=O)c2ccc3c(c2)N(C[C@@H]2CC[C@H]21)C[C@@]1(CCCc2cc(Cl)ccc21)CO3 [Example 58] | 0.2 nM | 664 nM |
| COc1nn(C)cc1C(=O)N[S@@]1(=O)=NC(=O)c2ccc3c(c2)N(C[C@@H]2CC[C@H]2[C@@H](OC(=O)CN(C)C(=O)CNC(C)(C)C)/C=C/C[C@H](C)[C@H]1C)C[C@@]1(CCCc2cc(Cl)ccc21)CO3 [Example 293] | 0.058 nM | 69.2 nM |
| CO[C@H]1/C=C/C[C@H](C)C[S@@](=O)(NC(=O)N2CC(C(F)F)C2)=NC(=O)c2ccc3c(c2)N(C[C@@H]2CC[C@H]21)C[C@@]1(CCCc2cc(Cl)ccc21)CO3 [Example 351] | 0.035 nM | 58.8 nM |
| CO[C@H]1/C=C/CCC[S@@](=O)(NC(=O)CCn2nccc2C)=NC(=O)c2ccc3c(c2)N(C[C@@H]2CC[C@H]21)C[C@@]1(CCCc2cc(Cl)ccc21)CO3 [Example 56] | 0.6 nM | 1180 nM |
| COC(=O)c1ccn2c1CN(C(=O)N[S@@]1(=O)=NC(=O)c3ccc4c(c3)N(C[C@@H]3CC[C@H]3[C@@H](OC)/C=C/C[C@H](C)C1)C[C@@]1(CCCc3cc(Cl)ccc31)CO4)CC2 [Example 383] | 0.659 nM | 1200 nM |
| COC(=O)N[C@H](C(=O)N1CCN(C(=O)N[S@@]2(=O)=NC(=O)c3ccc4c(c3)N(C[C@@H]3CC[C@H]3[C@@H](OC)/C=C/C[C@H](C)C2)C[C@@]2(CCCc3cc(Cl)ccc32)CO4)C[C@@H]1C)C(C)C [Example 285] | 0.131 nM | 79.7 nM |

Continued by falling IC50 [1], values first:

| IC50 [1] | EC50 [2] | SMILES |
| --- | --- | --- |
| 0.886 nM | 753 nM | CO[C@H]1/C=C/C[C@H](C)C[S@@](=O)(NC(=O)C2CC3(CCC3)C2)=NC(=O)c2ccc3c(c2)N(C[C@@H]2CC[C@H]21)C[C@@]1(CCCc2cc(Cl)ccc21)CO3 [Example 436] |
| 0.491 nM | 104 nM | CO[C@H]1/C=C/C[C@H](C)[C@@H](C)[S@@](=O)(NC(=O)c2cc3n(c2)CCOC3)=NC(=O)c2ccc3c(c2)N(C[C@@H]2CC[C@H]21)C[C@@]1(CCCc2cc(Cl)ccc21)CO3 [Example 137] |
| 0.3 nM | 2450 nM | CO[C@H]1/C=C/CCC[S@@](=O)(NC(=O)N2CCS(=O)(=O)CC2)=NC(=O)c2ccc3c(c2)N(C[C@@H]2CC[C@H]21)C[C@@]1(CCCc2cc(Cl)ccc21)CO3 [Example 73] |
| 0.2 nM | 388 nM | CO[C@H]1/C=C/CCC[S@@](=O)(NC(=O)CCc2cncnc2)=NC(=O)c2ccc3c(c2)N(C[C@@H]2CC[C@H]21)C[C@@]1(CCCc2cc(Cl)ccc21)CO3 [Example 53] |
| 0.195 nM | 83.5 nM | COc1c(C(=O)N[S@@]2(=O)=NC(=O)c3ccc4c(c3)N(C[C@@H]3CC[C@H]3[C@@H](OC)/C=C/C[C@H](C)C2)C[C@@]2(CCCc3cc(Cl)ccc32)CO4)cn2c1C[C@@H](OC)C2 [Example 224] |
| 0.167 nM | 106 nM | COCCn1cc(C(=O)N[S@@]2(=O)=NC(=O)c3ccc4c(c3)N(C[C@@H]3CC[C@H]3[C@@H](OC)/C=C/C[C@H](C)C2)C[C@@]2(CCCc3cc(Cl)ccc32)CO4)cn1 [Example 120] |
| 0.141 nM | 144 nM | CO[C@H]1/C=C/C[C@H](C)C[S@@](=O)(NC(=O)[C@H]2C[C@@H](C(C)(C)O)C2)=NC(=O)c2ccc3c(c2)N(C[C@@H]2CC[C@H]21)C[C@@]1(CCCc2cc(Cl)ccc21)CO3 [Example 178] |
| 0.103 nM | 184 nM | CO[C@H]1/C=C/C[C@H](C)C[S@@](=O)(NC(=O)c2cc(Cl)n(C)c2)=NC(=O)c2ccc3c(c2)N(C[C@@H]2CC[C@H]21)C[C@@]1(CCCc2cc(Cl)ccc21)CO3 [Example 118] |
| 0.101 nM | 172 nM | CO[C@H]1/C=C/C[C@H](C)C[S@@](=O)(NC(=O)c2cc(C)sn2)=NC(=O)c2ccc3c(c2)N(C[C@@H]2CC[C@H]21)C[C@@]1(CCCc2cc(Cl)ccc21)CO3 [Example 444] |
| 0.098 nM | 146 nM | CNC(=O)N[S@@]1(=O)=NC(=O)c2ccc3c(c2)N(C[C@@H]2CC[C@H]2[C@@H](OC)/C=C/C[C@H](C)C1)C[C@@]1(CCCc2cc(Cl)ccc21)CO3 [Example 454] |
| 0.081 nM | 152 nM | CCNC(=O)N[S@@]1(=O)=NC(=O)c2ccc3c(c2)N(C[C@@H]2CC[C@H]2[C@@H](OC)/C=C/C[C@H](C)C1)C[C@@]1(CCCc2cc(Cl)ccc21)CO3 [Example 421] |
| 0.077 nM | 64.7 nM | CO[C@H]1/C=C/C[C@H](C)C[S@@](=O)(NC(=O)N[C@@H]2C[C@H]2c2cnn(C)c2)=NC(=O)c2ccc3c(c2)N(C[C@@H]2CC[C@H]21)C[C@@]1(CCCc2cc(Cl)ccc21)CO3 [Example 129] |
| 0.07 nM | 142 nM | COc1nn(C)cc1C(=O)N[S@@]1(=O)=NC(=O)c2ccc3c(c2)N(C[C@@H]2CC[C@H]2[C@@H](OC)/C=C/[C@H](OC)CC1)C[C@@]1(CCCc2cc(Cl)ccc21)CO3 [Example 392] |
| 0.064 nM | 259 nM | CO[C@H]1/C=C/C[C@H](C)C[S@@](=O)(NC(=O)N[C@@H]2C[C@H]2F)=NC(=O)c2ccc3c(c2)N(C[C@@H]2CC[C@H]21)C[C@@]1(CCCc2cc(Cl)ccc21)CO3 [Example 364] |
| 0.062 nM | 185 nM | CO[C@H]1/C=C/C[C@H](C)C[S@@](=O)(NC(=O)c2csc(C)n2)=NC(=O)c2ccc3c(c2)N(C[C@@H]2CC[C@H]21)C[C@@]1(CCCc2cc(Cl)ccc21)CO3 [Example 146] |
| 0.058 nM | 88.8 nM | COCC1(O)CN(C(=O)N[S@@]2(=O)=NC(=O)c3ccc4c(c3)N(C[C@@H]3CC[C@H]3[C@@H](OC)/C=C/C[C@H](C)C2)C[C@@]2(CCCc3cc(Cl)ccc32)CO4)C1 [Example 268] |
| 0.053 nM | 72 nM | CO[C@H]1/C=C/C[C@H](C)C[S@@](=O)(NC(=O)N2CC(C3COC3)C2)=NC(=O)c2ccc3c(c2)N(C[C@@H]2CC[C@H]21)C[C@@]1(CCCc2cc(Cl)ccc21)CO3 [Example 261] |
| 0.046 nM | 22.4 nM | COC1CN(C(=O)N[S@@]2(=O)=NC(=O)c3ccc4c(c3)N(C[C@@H]3CC[C@H]3[C@@H](OC)/C=C/[C@H](OC)[C@H](C)C2)C[C@@]2(CCCc3cc(Cl)ccc32)CO4)C1 [Example 375] |
| 0.035 nM | 39.8 nM | CCOC1CN(C(=O)N[S@@]2(=O)=NC(=O)c3ccc4c(c3)N(C[C@@H]3CC[C@H]3[C@@H](OC)/C=C/C[C@H](C)C2)C[C@@]2(CCCc3cc(Cl)ccc32)CO4)C1 [Example 235] |
| 0.022 nM | 125 nM | CO[C@H]1/C=C/C[C@H](C)C[S@@](=O)(NC(=O)N[C@H]2C[C@](C)(O)C2)=NC(=O)c2ccc3c(c2)N(C[C@@H]2CC[C@H]21)C[C@@]1(CCCc2cc(Cl)ccc21)CO3 [Example 172] |
| 0.018 nM | 91.5 nM | COc1nn(C)cc1C(=O)N[S@@]1(=O)=NC(=O)c2ccc3c(c2)N(C[C@@H]2CC[C@H]2[C@@H](OC)CCC[C@H](C)C1)C[C@@]1(CCCc2cc(Cl)ccc21)CO3 [Example 240] |
